“Also recorded” adds a separate entry of the source.
Columns and labels:
Type in all cases: biochemical, rat
G4ST [1] = assay: G4ST enzymatic activity assay ([35S]PAPS sulfate transfer to chondroitin)
Experimental: The activities of G4ST and C6ST were assayed in accordance with the method of Habuchi, O. et al. (Habuchi, O., Matsui, Y., Kotoya, Y., Aoyama, Y., Yasuda, Y., and Noda, M., (1993) J. Biol. Chem., 268, 21968-21974). The reaction mixture contained imidazole hydrochloride (2.5 μmol, pH 6.8), protamine chloride (1.25 μg), dithiothreitol (0.1 μmol), chondroitin (25 nmol as glucuronic acid, derived from squid skin, prepared by the method described in Habuchi, O. and Miyata, K. (1980) Biochim. Biophys. Acta 616, 208-217), [^35S]PAPS (50 pmol: about 5.0×10^5 cpm: prepared by the method of Delfert, D. M., et al. (Delfert, D. M., and Conrad, H. E. (1985) Anal. Biochem. 148, 303-310)) and an enzyme in a final volume of 50 μl.
The above-mentioned reaction mixture was incubated at 37° C. for 20 minutes and immersed in a water bath kept at 100° C. for 1 minute to stop the enzymatic reaction. After the reaction was stopped, [^35S]-labeled chondroitin was isolated by desalting by gel chromatography using a Fast Desalting Column and precipitation with ethanol, and radioactivity was measured by the conventional manner.
To distinguish the activities of C6ST and G4ST one from another, [^35S]-labeled chondroitin was digested with chondroitinase ACII and unsaturated disaccharides (ΔDi-4S (2-acetamide-2-deoxy-3-O-(β-D-gluco-4-enepyranosyluronic acid)-4-O-sulfo-D-galactose) and ΔDi-6S (2-acetamide-2-deoxy-3-O-(β-D-gluco-4-enepyranosyluronic acid-6-O-sulfo-D-galactose)) were separated by paper chromatography (filter paper: Toyo No. 51A and solvent: 1-butanol/acetic acid/NH3 (1 M) (volume ratio 2:3:1)), the separated unsaturated disaccharides were visualized by irradiation of ultraviolet rays, the regions containing the disaccharides were cut out, and then radioactivities thereof were counted.
The amount of enzymatic activity required for transferring 1 pmol of a sulfate group for 1 minute under the conditions of 37° C. and pH 6.8 was defined as one unit as a unit of enzymatic activity.
Also, in the above-mentioned assay method for enzymatic activity, pH of imidazole hydrochloride buffer in the reaction mixture was varied (pH range: 6.3 to 7.6) and in addition, the buffer was replaced by one of buffers having various pH ranges (0.05 M, acetate buffer: pH 4.2 to 5.4, MES buffer: pH 5.4 to 6.8, Tris-HCl buffer: pH 7.2 to 9.0), and G4ST activity was assayed at each pH range (FIG. 6B).
In the above-mentioned assay method for enzymatic activity, the concentration of [^35S]PAPS in the reaction mixture was varied to measure the Km value of [^35S]PAPS as a sulfate group donor.

G4ST [2] = assay: Substrate specificity of G4ST (sulfate transfer to glycosaminoglycans); details: for transfer of a sulfate group by G4ST to the glycosaminoglycan as acceptor: 25 nmol as galactosamine or glucosamine, replacing chondroitin in the reaction mixture
Experimental: According to the measurement method for enzymatic activity described above, the activity of G4ST of transferring a sulfate group to glycosaminoglycans other than chondroitin was measured. A reaction mixture used as a control of reaction was the reaction mixture described for the above-mentioned assay method for enzymatic activity (imidazole hydrochloride (2.5 μmol, pH 6.8), protamine chloride (1.25 μg), dithiothreitol (0.1 μmol), chondroitin (25 nmol as glucuronic acid), [^35S]PAPS (50 pmol: about 5.0×10^5 cpm), and an enzyme, total volume 50 μl) and the activity was measured by replacing the chondroitin contained in the above-mentioned reaction mixture as a control with (1) chondroitin sulfate A (derived from whale cartilage) (manufactured by Seikagaku Corp.), chondroitin sulfate C (derived from shark cartilage) (manufactured by Seikagaku Corp.), and chondroitin sulfate E (derived from squid cartilage) (prepared by the method described in Habuchi, O., Sugiura, K., Kawai, N. and Suzuki, S. (1977) J. Biol. Chem. 252, 4570-4576), (2) dermatan sulfate (derived from pig skin) (manufactured by Seikagaku Corp.), (3) desulfated dermatan sulfate (prepared by the method described by Nagasawa, et al. (Nagasawa, K., Inoue, Y., and Tokuyasu, T. (1995) J. Biochem. 86, 1323-1329)), (4) heparan sulfate (derived from bovine kidney) (manufactured by Seikagaku Corp.), (5) CDSNS-heparin (completely desulfated N-sulfated heparin: manufactured by Seikagaku Corp.), and (6) keratan sulfate (derived from bovine cornea) (manufactured by Seikagaku Corp.) ((1), (2) and (3) were each in an amount of 25 nmol as galactosamine, while (4), (5) and (6) were each in an amount of 25 nmol as glucosamine).
To identify a sulfate group receptor, the purified G4ST was allowed to react with various glycosaminoglycans in the presence of protamine chloride in various concentrations (FIG. 7). In FIG. 7, closed circles indicate the results on chondroitin, open circles indicates the results on desulfated dermatan sulfate, closed triangles indicate the results on chondroitin sulfate A, open triangles indicates the results on chondroitin sulfate C, and closed square indicate the results on dermatan sulfate.
Target sequence in this assay (P69478 101-352 limits assumed): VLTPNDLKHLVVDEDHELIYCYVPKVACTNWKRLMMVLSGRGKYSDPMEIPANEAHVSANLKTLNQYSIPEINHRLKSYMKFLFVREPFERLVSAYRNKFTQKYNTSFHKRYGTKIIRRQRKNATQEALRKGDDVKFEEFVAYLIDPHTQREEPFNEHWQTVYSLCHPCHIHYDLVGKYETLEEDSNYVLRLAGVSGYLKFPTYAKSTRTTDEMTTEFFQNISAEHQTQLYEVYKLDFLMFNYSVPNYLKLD

G4ST [3] = assay: Identification of the sulfate group-transferring site of G4ST (chondroitinase digestion, HPLC / Superdex 30); details: 35S-labeled by G4ST, digested with chondroitinase ACII, Partisil 10-SAX HPLC
Experimental: To identify the sulfate group-transferring. site of chondroitin and desulfated dermatan sulfate, ^35S-labeled glycosaminoglycan obtained by sulfotransfer reaction by G4ST was digested with chondroitinase ACII (manufactured by Seikagaku Corp.) or chondroitinase ABC (manufactured by Seikagaku Corp.) and the digestion products were analyzed by HPLC (high performance liquid chromatography). ^35S-Labeling was performed under the same conditions as the above-mentioned assay method for enzymatic activity except that the amount of protamine chloride was increased to 10 μg. The unsaturated disaccharides obtained by the digestion of ^35S-labeled chondroitin and ^35S-labeled desulfated dermatan sulfate with chondroitinase ACII or chondroitinase ABC were isolated by HPLC using a Partisil 10-SAX column (4.5 mm×25 cm: manufactured by Whatman) equiberated with KH2PO4 (35 mM). The column was eluted by concentration gradient of KH2PO4 under the conditions of a flow rate of 1 ml/minute and a column temperature of 40° C. to recover 0.5 ml of fractions.
Further, a Superdex 30 gel chromatography was performed using a digestion product obtained by digesting ^35S-labeled desulfated dermatan sulfate with chondroitinase ABC and chondroltinase ACII or chondroitinase ACII alone. […]
Target sequence in this assay (P69478 101-352 limits assumed): as above

G4ST [4] = assay: G4ST enzymatic activity assay ([35S]PAPS sulfate transfer to chondroitin); details: protamine 0.25 mg/ml
Target sequence in this assay (P69478 101-352 limits assumed): as above

[5] = SH group-containing substance in the reaction mixture

Compound | effect on G4ST activity (G4ST [1]; metal ion 5 mM) | transfer of a sulfate group by G4ST to the glycosaminoglycan as acceptor (G4ST [2]) | other results
O[C@H](CS)[C@H](O)CS (racemic) [dithiothreitol] | – | – | effect on G4ST activity (G4ST [1]; [5]): enhanced the activity of G4ST
OCCS [2-mercaptoethanol] | – | – | effect on G4ST activity (G4ST [1]; [5]): enhanced the G4ST activity
[Ba+2] [Ba^2+] | activated; also recorded: enhanced | – | –
[Ca+2] [Ca^2+] | activated; also recorded: most activated; also recorded: enhanced | – | –
[Co+2] [Co^2+] | inhibit the activity of G4ST; also recorded: inhibited | – | –
[Fe+2] [Fe^2+] | activated; also recorded: enhanced | – | –
[Mg+2] [Mg^2+] | – | – | activating action on G4ST compared with other metal ions (G4ST [1]; concentration not printed for Mg2+): lowest in such an activating action
[Mn+2] [Mn^2+] | activated; also recorded: enhanced | – | –
Nc1ncnc2c1ncn2[C@@H]1O[C@H](COP(=O)(O)OS(=O)(=O)O)[C@@H](OP(=O)(O)O)[C@H]1O [PAPS, 3′-phosphoadenosine 5′-phosphosulfate] | – | – | Km (G4ST [1]; [35S]PAPS as sulfate group donor, concentration varied): 0.27 µM
[Sr+2] [Sr^2+] | activated; also recorded: enhanced | – | –
N[C@@H](CCC(=O)N[C@@H](CS)C(=O)NCC(=O)O)C(=O)O [reduced glutathione] | – | – | effect on G4ST activity (G4ST [1]; [5]): enhanced the G4ST activity
chondroitin | – | transfers a sulfate group | lowest protamine chloride concentration at which enhancement of activity was observed (G4ST [2]; protamine chloride in various concentrations): 0.25 mg/mL; radioactivity in eluted fractions of ΔDi-4S (G4ST [3]): radioactivity was detected only in the eluted fractions of ΔDi-4S
chondroitin sulfate A | – | slight amount of activity; also recorded: transfers a sulfate group | –
chondroitin sulfate C | – | transfers a sulfate group | –
chondroitin sulfate E | – | transferred substantially no sulfate group | –
dermatan sulfate | – | transferred substantially no sulfate group | –
heparan sulfate | – | transferred substantially no sulfate group; also recorded: transfers substantially no sulfate group | –
keratan sulfate | – | transferred substantially no sulfate group | –
protamine | – | – | effect on G4ST activity (G4ST [4]): activated; also recorded: enhanced
